From ChEMBL document CHEMBL3763055, “Evaluation of synthetic coumarins for antiausterity cytotoxicity against pancreatic cancers” (Bioorg Med Chem Lett, 2016)
The source made the active and inactive calls. No cut-off for these calls is given here.

Key:
[1] = Antiausterity activity against human PANC1 cells under nutrient deprived condition assessed as reduction in cell viability incubated for 24 hrs by WST-8 assay; format: functional, PANC-1
[2] = Cytotoxicity against human PANC1 cells in DMEM assessed as reduction in cell viability at 100 uM incubated for 24 hrs by WST-8 assay; format: cell-based; settings: panc-1, 24 h
[3] = Antiausterity activity against human MIAPaCa2 cells under nutrient deprived condition assessed as reduction in cell viability incubated for 24 hrs by WST-8 assay; format: functional, MIA PaCa-2
[4] = Antiausterity activity against human Capan1 cells under nutrient deprived condition assessed as reduction in cell viability incubated for 24 hrs by WST-8 assay; format: functional, CAPAN-1
PANC-1 = assay: Induction of apoptosis in human PANC1 cells under nutrient deprived condition at 50 uM after 24 hrs by ethidium bromide/acridine orange staining based fluorescence microscopy; format: functional, cell-based

Structure (SMILES) | PC50 [1] | Activity [2] | PC50 [3] | PC50 [4] | Activity (PANC-1)
Cc1cc(=O)oc2cc(OCC3CC3)ccc12 | >100 µM | Non-toxic | – | – | –
O=c1ccc2ccc(OCc3cn(Cc4cccc(C(F)(F)F)c4)nn3)cc2o1 | 29 µM | Non-toxic | 8.5 µM | 18 µM | Active
CCCCCCCCCCCCCCCCOc1ccc2c(C(F)(F)F)cc(=O)oc2c1 | >100 µM | Non-toxic | – | – | –
CCCCCCCCOc1ccc2c(C(F)(F)F)cc(=O)oc2c1 | 63 µM | Non-toxic | – | – | –
CCCCCCCCCCCCOc1ccc2c(CC)cc(=O)oc2c1 | 51 µM | Non-toxic | – | – | –
CCCCCCCCn1cc(COc2ccc3ccc(=O)oc3c2)nn1 | >100 µM | Non-toxic | – | – | –
CCCCCCCCCCCCCCCCOc1ccc2c(C(F)(F)F)cc(=O)oc2c1C | >100 µM | Non-toxic | – | – | –
CC(C)=CCC/C(C)=C/COc1cc2ccc(=O)oc2cc1O | 7.2 µM | – | – | – | –
COc1ccc(Cn2cc(COc3ccc4ccc(=O)oc4c3)nn2)cc1 | >100 µM | Non-toxic | – | – | –
CCCCCCCCCCCCOc1ccc2c(C(F)(F)F)cc(=O)oc2c1C | >100 µM | Non-toxic | – | – | –
CC(C)(CC(=O)/C=C/c1ccc(C(F)(F)F)cc1)C1Cc2c(ccc3ccc(=O)oc23)O1 (configuration not stated) | 0.023 µM | – | – | – | –
CCCCCCCCCCCCOc1ccc2c(C)cc(=O)oc2c1 | >100 µM | Non-toxic | – | – | –
CCCCCCCCCCCCCCOc1ccc2c(C)cc(=O)oc2c1 | >100 µM | Non-toxic | – | – | –
CC(C)(CC(=O)/C=C/c1cccc(C(F)(F)F)c1)C1Cc2c(ccc3ccc(=O)oc23)O1 (configuration not stated) | 0.079 µM | – | – | – | –
O=c1ccc2ccc(OCc3cn(Cc4ccc(C(F)(F)F)cc4)nn3)cc2o1 | >100 µM | Non-toxic | 9.6 µM | >100 µM | –
CC(C)c1ccc(Cn2cc(COc3ccc4ccc(=O)oc4c3)nn2)cc1 | >100 µM | Non-toxic | – | – | –
CCCCCCCCOc1ccc2c(CC)cc(=O)oc2c1 | 29 µM | Non-toxic | – | – | –
O=c1ccc2ccc(OCc3cn(Cc4ccccc4)nn3)cc2o1 | >100 µM | Non-toxic | – | – | –
CCCCCCCCOc1ccc2c(C)cc(=O)oc2c1C | >100 µM | Non-toxic | – | – | –
CCCCCCCCOc1ccc2c(C)cc(=O)oc2c1 | 48 µM | Non-toxic | – | – | –
